This is an account of results in US20260285849A1, “METHYLOPHIOPOGONONE A DERIVATIVE, AND PREPARATION AND USE THEREOF” (INSTITUTE OF MATERIA MEDICA, CHINESE ACADEMY OF MEDICAL …, priority 2022, published 2026).

Where two headings read alike, the source gives them in different places.

Experiment [1] concerns mice with isoproterenol (ISO)-induced ischemic heart disease. Description: ISO-induced ischemic heart disease mouse model: Ca2+ in myocardial tissue. Format: in vivo. As for the experimental part: Male C57BL/6 mice were allowed to acclimate to the environment and then randomly divided into 9 groups, namely the blank control group, the ISO model group, the ISO+diltiazem 20 mg/kg positive control drug group, the ISO+Formula I (0.1, 0.5, 2 mg/kg) groups, and the ISO+Formula II (0.1, 0.5, 2 mg/kg) groups. Mice in the drug administration groups were intragastrically administered the corresponding doses of Formula I and Formula II compounds once a day at the same time. Mice in the positive drug diltiazem group were intragastrically administered the corresponding dose of diltiazem once a day. Mice in the blank control group and the model group were given the same amount of solvent (0.5% CMC-Na). The administration volume was 10 mL/kg, and the administration was continuous for 11 days.
From the 4th to the 10th day of drug administration, ISO modeling was carried out. The blank control group was subcutaneously injected with normal saline, and mice in the other groups were subcutaneously injected with ISO at a dose of 40 mg/kg (modeling was performed 2 hours after drug administration), for a total of 7 times.
Calcium ion detection in myocardial tissue: After the experiment ended, some myocardial tissue was taken to prepare a 10% myocardial tissue homogenate with ultrapure water. The homogenate was centrifuged at 1200 rpm for 20 minutes at 4° C. to separate the supernatant of the myocardial tissue homogenate. The calcium ion content was determined according to the kit instructions; protein quantification was performed using the BCA protein assay method.

Experiment [2] deals with Rat H9C2 cardiomyocytes. Conditions: 800 μM ISO 24 h, MTT 570 nm.
Experimental: Rat H9C2 cardiomyocytes in the logarithmic growth phase were seeded into 96-well plates at a density of 7×10^4 cells/mL, with 100 μL per well. […] After 24 hours of culture, the drug groups were treated with 800 μM ISO and the corresponding concentrations of drugs. The ISO model group received 800 μM ISO and an equal volume of DMSO, and the blank control group received an equal volume of DMSO. The cells were then cultured for another 24 hours. After removing the supernatant, 100 μL MTT solution (0.5 mg/mL) was added to each well and incubated in the cell culture incubator for 4 hours. After removing the supernatant, 150 μL DMSO was added to each well, mixed by shaking for 10 minutes, and the absorbance was measured at 570 nm using a microplate reader to calculate cell viability. Cell viability (%)=[(As−Ab)/(Ac−Ab)]×100%. As: Experimental well (medium with cells, MTT, ISO); Ac: Control well (medium with cells, MTT, without ISO); Ab: Blank well (medium without cells, MTT, without ISO).
Where [3] appears, read: 0.1 mg/kg intragastric once a day 11 days.
Where [4] appears, read: 0.5 mg/kg intragastric once a day 11 days.
Where [5] appears, read: 2 mg/kg intragastric once a day 11 days.

Consider `Cc1c(O)cc(O)c2c(=O)c(Cc3ccc4c(c3)OCO4)coc12` [Formula II, 3-(benzo[d][1,3]dioxol-5-ylmethyl)-5,7-dihydroxy-8-methyl-4H-chromen-4-one], for which the “Ca^2+” value in experiment [1] (setting [3]) is 0.046 ± 0.015 mmol/gprot; in experiment [1] (setting [4]) it was 0.054 ± 0.014 mmol/gprot; in experiment [1] (setting [5]) it was 0.059 ± 0.009 mmol/gprot. The OD in experiment [2] (0.1 μM) was 0.964 ± 0.132; in experiment [2] (0.3 μM) it was 0.964 ± 0.031; in experiment [2] (1 μM), 0.904 ± 0.072^###&&; in experiment [2] (3 μM) it was 0.963 ± 0.064; in experiment [2] (5 μM) it was 0.784 ± 0.067; in experiment [2] (10 μM) it was 0.806 ± 0.067.

Regarding `O=c1c(Cc2ccc3c(c2)OCO3)coc2cc(O)cc(O)c12` [Formula I], the “Ca^2+” value in experiment [1] (setting [3]) is 0.050 ± 0.008 mmol/gprot; in experiment [1] (setting [4]), 0.046 ± 0.010 mmol/gprot; in experiment [1] (setting [5]) it was 0.058 ± 0.009 mmol/gprot. For the same molecule, the OD in experiment [2] (0.1 μM) is reported as 0.983 ± 0.144; in experiment [2] (0.3 μM) it was 0.929 ± 0.105; in experiment [2] (1 μM), 0.969 ± 0.065^###&&; in experiment [2] (3 μM), 0.926 ± 0.045; in experiment [2] (5 μM), 0.807 ± 0.088; in experiment [2] (10 μM), 0.839 ± 0.091^###&.
